Experimental findings from patent US10738024B2, “Compounds for treatment of angiogenesis-mediated diseases” (Indiana University Research and Technology Corporation, priority 2013, dated 2020) are described below.

Common to all, as to format: cell-based, human
In one test the test system is HRECs. Briefly: Matrigel tube formation by HRECs. The following applies: for tube formation ability of HRECs: compared to DMSO control, concentration not given. How it is done:
Matrigel assays were performed as described in Ponce (2001) In vitro matrigel angiogenesis assays, Methods Mol Med 46: 205-209, with slight modifications for the use of HRECs. Briefly, HRECs were starved overnight at 0.5% FBS in EBM-2 and plated on a 96-well plate at a density of 7,500 cells/well over 50 μL of Matrigel high concentration basement membrane. SH-11052 (2) was added at the indicated concentrations in EBM-2+1% FBS. Cells were observed every 2 hours by bright field microscopy at 40× magnification for tube formation. Closed units (polygons) were manually counted at 8 hours post plating and numbers normalized to the DMSO control. Assays were performed in triplicate.
For determining the effect of analog compound SH-11037 (6c) on tube formation, HRECs were plated in 100 μL of EGM-2 containing SH-11037 (6c) (0 nM, 50 nM and 200 nM) dissolved in DMSO in 96-well MatriGel-coated plates for one hour. Wells were photographed after 8 hours and number of polygons (enclosed shapes bordered by tubes) manually counted and expressed as a percentage of the DMSO-only control.

The test system of the next test is IκB-α. Briefly: TNF-α-mediated degradation of IκB-α in HRECs (immunoblot). The following applies: 20 ng/ml TNF-α, 20 minutes. How it is done:
(§1) HRECs were seeded at 10^5 cells/well in a 6-well plate and after 24 hours of incubation at 37° C., cells were serum starved in 0.1% serum-EBM-2 for 8 hours. Cells were then treated with the indicated concentrations of SH-11052 (2) for one hour before the addition of 20 ng/ml of TNF-α. After 20 minutes, cells were lysed in NP-40 Lysis buffer containing 25 mM HEPES pH 7.4, 1% NP-40, 150 mM NaCl, 10% glycerol, 1 mM sodium orthovanadate, 10 mM sodium fluoride, 1 mM sodium pyrophosphate, 1 mM PMSF, 2.5 mg/ml aprotinin, 1 mM pepstatin, and 1 mM leupeptin. Equal amounts of proteins (80 μg), as measured by a Bradford assay, were run on 10% SDS-PAGE, transferred to PVDF membrane, blocked with 5% BSA in TBS-0.05% Tween-20 and immunoblotted with the indicated primary antibodies (1:1000 in 1% BSA in TBS-0.05% Tween-20) overnight at 4° C. After three washes in TBS-0.05% Tween-20, HRP-conjugated secondary antibodies (1:5000 in 5% BSA in TBS-0.05% Tween-20) were applied for one hour at room temperature. After three washes, the protein bands were detected and densitized using ECL Prime western blot detection reagent (GE Life Sciences, Piscataway, N.J., USA) and an XRS gel documentation system running Quantity One software (Bio-Rad). Target protein band intensity was normalized to housekeeping gene α-tubulin. […]

The subject of a further test is PTGS2 (COX2). In words: qRT-PCR of NF-κB target gene PTGS2 in TNF-α challenged cells. The following applies: 10 ng/ml TNF-α for 24 hours; listed as SH-11052 (2). How it is done: (§2) Similarly, the mRNA expression of the pro-inflammatory molecules IL8, PTGS2 (COX2) and CCL2 (MCP-1), inducible by NF-κB, were analyzed in the presence of SH-11052 (2). Cells (10^5 per well) were seeded in a 6-well plate and incubated for 24 hours at 37° C. and 5% CO2. The cells were then starved in 0.1% serum-EBM-2 for 12 hours followed by incubation for an hour in the presence of different concentrations of SH-11052 (2). The cells were then challenged for 24 hours with 10 ng/ml TNF-α. Following incubation, cells were lysed and RNA was isolated using Trizol reagent (Life Technologies). cDNA was prepared from 80 ng total RNA using random primers and M-MuLV Reverse Transcriptase (New England Biolabs, Ipswich, Mass., USA). RT-PCR reactions were set up using the TaqMan Fast Gene Expression Assay Kit according to the manufacturer's instructions. FAM-labeled TaqMan probes for PTGS2 (Hs00153133_m1), CCL2 (Hs00234140_m1), IL8 (Hs00174103_m1), and control, TBP (Hs99999910_m1), genes were used to monitor the expression levels of these genes. The qRT-PCR plate was read in a ViiATM 7 qPCR system (Life Technologies) and the data were analyzed using the ΔΔCt method. The expression levels of genes were normalized to TBP gene expression and calibrated to the DMSO-treated, unstimulated sample.

The subject of another test is IL8. Briefly: qRT-PCR of NF-κB target gene IL8 in TNF-α challenged cells. The following applies: 10 ng/ml TNF-α for 24 hours; listed as SH-11052 (2). The method, then: as §2
The next test relates to VEGFR2. In words: Phosphorylation of VEGFR2 in HRECs upon VEGF stimulation (immunoblot). The following applies: 100 ng/ml VEGF, 20 minutes. The method, then:
as §1, with “of 100” for “of 20”, “ng/ml VEGF.” for “ng/ml of TNF-α.”

Entries after “also recorded” stand apart in the source; their conditions may differ.

For `COc1ccc(CC2COc3cc(OC)c(O)c(O)c3C2=O)cc1O` (single isomer, unassigned) [Compound 2], the “tube formation ability of HRECs at 140 μM” value in the test on HRECs (140 μM, 8 hours) is recorded as “completely abolished”. Moreover, the “tube formation ability of HRECs” value in the test with HRECs (listed as SH-11052 (2)) is recorded as “inhibited tube formation; also recorded: significant reduction in their tube formation ability”. Moreover, the “tube formation of HRECs at the GI50 value” in the test on HRECs (compound at its GI50 value, 8 hours) was “significant reduction in tube formation”. Further, the “TNF-α-mediated degradation of IκB-α” value in the test with IκB-α is “significantly decreased in a dose dependent manner”. For the same compound, the “mRNA expression of PTGS2 (COX2)” value in the test on PTGS2 (COX2) is “decreased the expression”. Also, the “mRNA expression of IL8” value in the test with IL8 is “decreased the expression”. The “phosphorylation of VEGFR2” value in the test with VEGFR2 is given as “did not inhibit phosphorylation”.

Turning to `COc1ccc(CC2COc3cc(OC)c(OC)c(OC)c3C2=O)cc1OC(=O)[C@H](Cc1ccccc1)NC(=O)OC(C)(C)C` (stereo partly drawn) [Compound 6c, (2S)-2-methoxy-5-((5,6,7-trimethoxy-4-oxochroman-3-yl)methyl)phenyl 2-((tert-butoxycarbonyl)amino)-3-phenylpropanoate], in the test on HRECs (500 nM, polygons vs DMSO-only control), the “block of HREC tube formation” value was 88%. The “tube formation ability of HRECs” value in the test with HRECs is “inhibited”.
